Measured values as given in patent publication US20220370416A1, “COMPOUNDS AND METHODS FOR TARGETED DEGRADATION OF KRAS” (Arvinas Operations, Inc., priority 2020, published 2022).

Tests used:
KRAS^G12D = target: T1, KRAS^G12D (Homo sapiens, UniProt P01116, G13D); assay: KRAS^G12D degradation in HCT116 cells (specificity); format: cell-based; settings: HCT116 cells (FIG. 3B)
T1 construct: KRAS degradation was examined in HCT 116 cells, which harbor a heterozygous KRAS^G13D mutation; endogenous in cells; host or cells: HCT116

pErk [1] = settings: NCI-H2030, 24 hour dose response
Method: The ability of LC-2 to modulate Erk signaling was investigated in NCI-H2030 and NCI-H23 cells during a 24 hour dose response.
NCI-H2030, NCI-H23, and NCI-H358 were cultured in RPMI (ATCC30-2001) supplemented with 10% FBS (Biological Industries; cat. no. S1480) and 1% Penicillin-Streptomycin (ThermoFisher; cat. no. 15140122). HCT-116 cells were maintained in high glucose DMEM (ThermoFisher; cat. no. 11965084) supplemented as above. […] DPBS (ThermoFisher; cat. no. 14190250) was used to wash cells and 0.25% Trypsin-EDTA (ThermoFisher; cat. no. 252000-056) was used to detach cells for passaging.
Cell lysates were clarified at 21000×g for 15 mins at 4° C. Protein levels were quantified using a 50:1 mixture of bicinchoninic acid solution (Millipore Sigma; cat. no. B9643) and 4% (w/v) copper(II) sulfate solution (Millipore Sigma; cat. no. C2284) incubated at 37° C. for 30 mins. Absorbance values at 560 nm were read on an EnVision 2101 Multilabel Reader (PerkinElmer). Proteins were separated using 26 well Criterion TGX precast 4-15% (cat. no. 5671085) or 8-16% (cat. no. 5671105) gradient midi gels. […]
Band intensities were quantified using BioRad's Image Lab Software. […] Data was analyzed by computing one-way ANOVAs or two-way ANOVAs (for grouped data) using multiple comparisons in which the mean of DMSO was compared to all treatment means using GraphPad Prism 7. […]

pErk [2] = settings: MIA PaCa-2, 2.5 μM LC-2, 6 and 24 hours
Method: Between 2.5×10^5 and 6.0×10^5 cells were seeded into 6-well plates (Corning; cat. no. 353046). The next day, media was removed and cells were treated with 2.5 μM LC-2 for 1, 2, 4, 8, 12, or 24 hours. […] For 24-hour time course experiments, cells were treated at the indicated times and concurrently lysed in RIPA buffer supplemented as described previously. For longer time course experiments and time courses in which cells were treated with LC-2 or LC-2 Epimer, cells were concurrently treated with either compound, then lysed by scraping in RIPA buffer at the indicated time points.
Cell lysates were clarified at 21000×g for 15 mins at 4° C. Protein levels were quantified using a 50:1 mixture of bicinchoninic acid solution (Millipore Sigma; cat. no. B9643) and 4% (w/v) copper(II) sulfate solution (Millipore Sigma; cat. no. C2284) incubated at 37° C. for 30 mins. Absorbance values at 560 nm were read on an EnVision 2101 Multilabel Reader (PerkinElmer). Proteins were separated using 26 well Criterion TGX precast 4-15% (cat. no. 5671085) or 8-16% (cat. no. 5671105) gradient midi gels. After separation, proteins were transferred to nitrocellulose or PVDF membranes at 76 V for 2 hours at 4° C. Blots were then blocked in 5% milk in tris-buffered saline with Tween-20 (TBST; 20 mM Tris, 150 mM NaCl, 0.02% Tween-20). […]

KRAS^G12C [3] = target: T2, KRAS^G12C (Homo sapiens, UniProt P01116, G12C); assay: KRAS^G12C degradation in heterozygous NCI-H23 cells; format: cell-based; parameters: endogenous in cells; host or cells: NCI-H23
KRAS^G12C [4] = target: T2, KRAS^G12C; assay: KRAS^G12C degradation by immunoblot in NCI-H358 cells; format: cell-based; parameters: MRTX849-VHL bifunctional compounds engage and degrade endogenous KRAS^G12C in NCI-H2030 cells; endogenous in cells; host or cells: NCI-H2030, NCI-H358, MIA PaCa-2, SW1573, NCI-H23; settings: NCI-H358, heterozygous KRAS^G12C
Method: (§1) NCI-H2030 (CRL-5914), MIA PaCa-2 (CRL-1420), NCI-H23 (CRL-5800), NCI-H358 (CRL-5807), and HCT-116 (CCL-247) cells were obtained from ATCC, expanded immediately, and frozen down. Vials were thawed and used within 20 passages. SW1573 cells were a gift from Arvinas and were handled in the same manner. NCI-H2030, NCI-H23, and NCI-H358 were cultured in RPMI (ATCC30-2001) supplemented with 10% FBS (Biological Industries; cat. no. S1480) and 1% Penicillin-Streptomycin (ThermoFisher; cat. no. 15140122). HCT-116 cells were maintained in high glucose DMEM (ThermoFisher; cat. no. 11965084) supplemented as above. […]
(§2) Cell lysates were clarified at 21000×g for 15 mins at 4° C. Protein levels were quantified using a 50:1 mixture of bicinchoninic acid solution (Millipore Sigma; cat. no. B9643) and 4% (w/v) copper(II) sulfate solution (Millipore Sigma; cat. no. C2284) incubated at 37° C. for 30 mins. Absorbance values at 560 nm were read on an EnVision 2101 Multilabel Reader (PerkinElmer). […]
(§3) Band intensities were quantified using BioRad's Image Lab Software. Total KRAS levels were examined by quantifying levels of both conjugated KRAS^G12C and unbound KRAS (wt or mutant) using an analysis box that spanned the two bands. This same sized box was used to quantify unbound KRAS in DMSO treated samples to account for background, except for LC-2 Epimer in FIGS. 6A and 6B. […]

KRAS^G12C [5] = target: T2, KRAS^G12C; assay: KRAS^G12C degradation in a panel of 5 KRAS^G12C cancer cell lines (immunoblot); format: cell-based; parameters: MRTX849-VHL bifunctional compounds engage and degrade endogenous KRAS^G12C in NCI-H2030 cells; endogenous in cells; host or cells: NCI-H2030, NCI-H358, MIA PaCa-2, SW1573, NCI-H23; settings: read-out: DMax values across cell lines
Method: as §1, §2, §3

T2 sequence (P01116 1-188 isoform P01116-2 G12C): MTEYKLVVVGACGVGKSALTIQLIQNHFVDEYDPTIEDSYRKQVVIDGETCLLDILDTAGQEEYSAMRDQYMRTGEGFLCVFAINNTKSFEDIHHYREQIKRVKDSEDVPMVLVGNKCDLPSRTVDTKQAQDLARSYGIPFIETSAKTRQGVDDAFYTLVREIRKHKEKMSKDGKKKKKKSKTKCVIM
T1 sequence (P01116 1-185 isoform P01116-2 G13D): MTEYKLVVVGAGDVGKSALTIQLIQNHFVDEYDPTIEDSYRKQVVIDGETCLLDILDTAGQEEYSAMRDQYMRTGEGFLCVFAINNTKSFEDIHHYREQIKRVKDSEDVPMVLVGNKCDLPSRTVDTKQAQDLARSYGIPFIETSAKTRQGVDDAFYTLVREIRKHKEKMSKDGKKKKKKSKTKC

Compound: C=C(F)C(=O)N1CCN(c2nc(OC[C@@H]3CCCN3CCCOCCC(=O)N[C@H](C(=O)N3C[C@H](O)C[C@H]3C(=O)NCc3ccc(-c4scnc4C)cc3)C(C)(C)C)nc3c2CCN(c2cccc4cccc(Cl)c24)C3)C[C@@H]1CC#N [LC-2, (2S,4R)-1-((S)-2-(3-(3-((S)-2-(((7-(8-chloronaphthalen-1-yl)-4-((S)-3-(cyanomethyl)-4-(2-fluoroacryloyl)piperazin-1-yl)-5,6,7,8-tetrahydropyrido[3,4-d]pyrimidin-2-yl)oxy)methyl)pyrrolidin-1-yl)propoxy)propanamido)-3,3-dimethylbutanoyl)-4-hydroxy-N-(4-(4-methylthiazol-5-yl)benzyl)pyrrolidine-2-carboxamide]
- degradation of KRAS^G12D (KRAS^G12D): does not degrade KRAS^G12D
- pErk signaling (pErk [1]): dose-dependent decrease in signaling
- total Erk levels (pErk [1]): elevated in a dose-dependent manner
- pErk (pErk [2]): suppressed
- rescue of induced KRAS^G12C degradation (mechanism) (KRAS^G12C [3]; NCI-H23 cells, neddylation inhibition vs inhibition of lysosomal acidification (FIG. 5B)): Inhibition of neddylation, but not inhibition of lysosomal acidification, rescues
- induction of KRAS^G12C degradation (KRAS^G12C [3]; heterozygous NCI-H23 cells (FIG. 4D)): induces KRAS^G12C degradation
- DC50 (KRAS^G12C [4]): 0.52 ± 0.3 µM
- Dmax (KRAS^G12C [4]): > 40%
- Dmax (KRAS^G12C [5]): 75 to 90%
